Consider 25 molecules from US20250268877A1 (BIOGEN MA INC., priority 2020, published 2025).

SMILES strings stand for the structures. Values after ≈ are worked out from the molar mass of the structure shown.

The target in one data set is MDR1 (Homo sapiens (Human), UniProt P08183). In words: MDR1-MDCK assay (apparent permeability, efflux ratio). The data set is classed as in vitro ADME. Particulars: human, MDCK-MDR1, 1 μM, read-out: MDR1-MDCK_Efflux Ratio.
Data set [1] can be described thus: Kinetic solubility assay (CLND), potassium phosphate buffer pH 6.8. The data set is classed as physicochemical. Particulars: potassium phosphate buffer, pH 6.8, aqueous buffer, kinetic from dmso stock, pH 6.8, 2% DMSO, 24 hours at ambient temperature.
Source text: • Inject filtrates into the nitrogen detector for quantification on Analiza's Automated Discovery Workstation (ADW). • Solubility results generated in μg/mL
The next data set concerns the target IRAK4 (Homo sapiens (Human), UniProt Q9NWZ3). In words: IRAK4 2-hour 1 mM ATP Biochemical Assay (MesoScale Detection format). Particulars: 100 pM IRAK4, read-out: IRAK4 IC50.

Sequence of IRAK4 (Q9NWZ3 whole entry): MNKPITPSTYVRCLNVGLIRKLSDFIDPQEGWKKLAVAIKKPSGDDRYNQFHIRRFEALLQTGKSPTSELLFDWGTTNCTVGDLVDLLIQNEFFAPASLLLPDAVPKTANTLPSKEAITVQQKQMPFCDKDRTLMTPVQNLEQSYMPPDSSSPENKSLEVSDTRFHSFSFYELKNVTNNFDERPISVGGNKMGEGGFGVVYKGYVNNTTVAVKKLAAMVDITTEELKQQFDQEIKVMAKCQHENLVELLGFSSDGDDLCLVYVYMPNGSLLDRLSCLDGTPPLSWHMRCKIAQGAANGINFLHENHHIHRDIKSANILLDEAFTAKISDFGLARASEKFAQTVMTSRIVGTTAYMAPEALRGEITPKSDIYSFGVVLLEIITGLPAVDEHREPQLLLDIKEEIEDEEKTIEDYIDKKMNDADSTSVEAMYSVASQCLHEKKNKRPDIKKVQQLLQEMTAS
Sequence of MDR1 (P08183 whole entry): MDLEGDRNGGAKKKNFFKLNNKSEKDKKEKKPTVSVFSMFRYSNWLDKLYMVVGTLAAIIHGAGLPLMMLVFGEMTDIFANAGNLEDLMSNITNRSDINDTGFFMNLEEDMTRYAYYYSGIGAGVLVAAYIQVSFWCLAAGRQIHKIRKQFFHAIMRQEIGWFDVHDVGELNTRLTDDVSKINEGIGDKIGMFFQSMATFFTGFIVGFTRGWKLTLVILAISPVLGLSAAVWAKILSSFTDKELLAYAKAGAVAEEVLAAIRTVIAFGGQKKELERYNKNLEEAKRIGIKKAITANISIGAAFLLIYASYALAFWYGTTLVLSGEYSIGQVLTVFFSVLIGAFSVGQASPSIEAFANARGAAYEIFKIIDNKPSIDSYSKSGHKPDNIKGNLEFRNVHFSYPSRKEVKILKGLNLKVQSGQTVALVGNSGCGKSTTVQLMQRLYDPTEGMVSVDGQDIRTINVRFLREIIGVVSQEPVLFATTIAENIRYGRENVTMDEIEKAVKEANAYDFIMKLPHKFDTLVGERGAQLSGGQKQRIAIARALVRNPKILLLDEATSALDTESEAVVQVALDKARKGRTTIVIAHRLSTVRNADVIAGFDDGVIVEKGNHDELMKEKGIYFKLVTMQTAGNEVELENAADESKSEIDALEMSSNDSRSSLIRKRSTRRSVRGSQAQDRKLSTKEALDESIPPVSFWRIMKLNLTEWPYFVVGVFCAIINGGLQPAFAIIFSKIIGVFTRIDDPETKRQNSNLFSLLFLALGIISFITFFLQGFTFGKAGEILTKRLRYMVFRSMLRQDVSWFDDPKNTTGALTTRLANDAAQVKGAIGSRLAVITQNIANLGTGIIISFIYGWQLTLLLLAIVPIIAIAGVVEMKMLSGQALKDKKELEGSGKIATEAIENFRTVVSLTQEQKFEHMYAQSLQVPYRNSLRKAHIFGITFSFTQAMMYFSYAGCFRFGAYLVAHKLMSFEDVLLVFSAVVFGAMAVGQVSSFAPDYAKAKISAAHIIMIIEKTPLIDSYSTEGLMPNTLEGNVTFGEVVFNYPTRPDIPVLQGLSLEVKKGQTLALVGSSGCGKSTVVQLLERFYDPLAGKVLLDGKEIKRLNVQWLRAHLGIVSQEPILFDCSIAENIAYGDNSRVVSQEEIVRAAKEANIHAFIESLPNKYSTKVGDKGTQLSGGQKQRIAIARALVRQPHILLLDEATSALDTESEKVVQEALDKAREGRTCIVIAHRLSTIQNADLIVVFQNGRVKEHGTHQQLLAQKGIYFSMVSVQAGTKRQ
Procedure for IRAK4: The 2-hour 1 mM ATP Biochemical Assay employed a MesoScale Detection (MSD) format.
The activity was quenched with 11 μl of 70 mM EDTA, pH 8.
To detect the phosphorylated biotinylated peptide substrate, 30 μl of the quenched reaction mixture was added to equivalent wells of a 384 well streptavidin coated MesoScale plate (Meso Scale Discovery #L21SA-1). After a 1 hour incubation of the plate for 1 hour at room temperature with gentle mixing, the plate wells were washed 3 times with 50 mM Tris, pH 7.5, 150 mM NaCl, 0.02% Tween-20.
A 25 μl volume of 1:500 anti-P-Threonine Rabbit polyclonal Antibody plus 1:500 Goat-anti-Rabbit Sulfo Tag Antibody (Meso Scale Discovery R^32AB-1) in 50 mM Tris, pH 7.5, 150 mM NaCl, 0.02% Tween-20 plus 2% BSA was then added to each well. After a 1-hour incubation of the plate for 1 hour at room temperature with gentle mixing, the plate wells were washed, 3 times with 50 mM Tris, pH 7.5, 150 mM NaCl, 0.02% Tween-20.

Usually solubility stands for the dissolved amount per volume that the medium holds. Low values mean little dissolved substance, high ones much dissolved substance. In the case of `CC(C)Oc1nc2nn(C34COC(C)(C3)C4)cc2cc1C(=O)Nc1cccn([C@@H]2C[C@@H]2F)c1=O` (racemic) [Example 32, (rac)-Cis-N-(1-(2-fluorocyclopropyl)-2-oxo-1,2-dihydropyridin-3-yl)-6-isopropoxy-2-(1-methyl-2-oxabicyclo[2.1.1]hexan-4-yl)-2H-pyrazolo[3,4-b]pyridine-5-carboxamide], the efflux ratio at 120 min, 1 μM at MDR1 came to 4.18. The same molecule yielded a solubility at 24 h in data set [1] of 16 µg/mL (≈ 34.2 µM).
`CC(C)Oc1cc2nn(C34COC(C)(C3)C4)cc2cc1C(=O)Nc1cccn([C@@H]2C[C@@H]2F)c1=O` (racemic) [Example 35, (racemic)-Cis-N-(1-(2-fluorocyclopropyl)-2-oxo-1,2-dihydropyridin-3-yl)-6-isopropoxy-2-(1-methyl-2-oxabicyclo[2.1.1]hexan-4-yl)-2H-indazole-5-carboxamide] registered a solubility at 24 h in data set [1] of 65.7 µg/mL (≈ 141 µM).
On to `CC(C)Oc1cc2nn(C34COC(C)(C3)C4)cc2cc1C(=O)Nc1cccn([C@@H]2C[C@H]2C)c1=O` (racemic) [Example 39, Racemic-(Trans)-6-isopropoxy-2-(1-methyl-2-oxabicyclo[2.1.1]hexan-4-yl)-N-(1-(2-methylcyclopropyl)-2-oxo-1,2-dihydropyridin-3-yl)-2H-indazole-5-carboxamide], for which the solubility at 24 h in data set [1] stood at 2.3 µg/mL (≈ 4.97 µM).
Regarding `CC(C)Oc1nc2nn(C34COC(C)(C3)C4)cc2cc1C(=O)Nc1cccn(C2C[C@@H]2F)c1=O` (mixture of isomers) [Example 42, racemic-(Trans)-N-(1-(2-fluorocyclopropyl)-2-oxo-1,2-dihydropyridin-3-yl)-6-isopropoxy-2-(1-methyl-2-oxabicyclo[2.1.1]hexan-4-yl)-2H-pyrazolo[3,4-b]pyridine-5-carboxamide], at MDR1, the efflux ratio at 120 min, 1 μM was found to be 2.5. The same molecule had a solubility at 24 h in data set [1] of 2.8 µg/mL (≈ 5.99 µM).
`CC(C)Oc1nc2nn(C34COC(C)(C3)C4)cc2cc1C(=O)Nc1cccn([C@@H]2C[C@@H]2F)c1=O` (single isomer, unassigned) [Example 33]: the efflux ratio at 120 min, 1 μM at MDR1 worked out at 4.15. For the same molecule, in data set [1], the solubility at 24 h stood at 6.6 µg/mL (≈ 14.1 µM).
The corresponding values for `CC(C)Oc1cc2nn(C34COC(C)(C3)C4)cc2cc1C(=O)Nc1cccn([C@@H]2C[C@@H]2F)c1=O` (single isomer, unassigned) [Example 36] are 2.96 and 69.5 µg/mL (≈ 149 µM).
Turning to `CC(C)Oc1cc2nn(C34COC(C)(C3)C4)cc2cc1C(=O)Nc1cccn([C@H]2C[C@H]2F)c1=O` (single isomer, unassigned) [Example 37], the efflux ratio at 120 min, 1 μM at MDR1 is 2.71. This molecule also registered a solubility at 24 h in data set [1] of 56 µg/mL (≈ 120 µM).
For `CC(C)Oc1nc2nn(C34COC(C)(C3)C4)cc2cc1C(=O)Nc1cccn([C@H]2C[C@@H]2F)c1=O` (single isomer, unassigned) [Example 43] the same measures were 1.82 and 1.8 µg/mL (≈ 3.85 µM).
Take `CC(C)Oc1nc2nn(C34COC(C)(C3)C4)cc2cc1C(=O)Nc1cccn([C@@H]2C[C@H]2F)c1=O` (single isomer, unassigned) [Example 44]: the efflux ratio at 120 min, 1 μM on MDR1 was found to be 1.84. In data set [1], this molecule returned a solubility at 24 h of 1.9 µg/mL (≈ 4.06 µM).
The corresponding values for `CC(C)Oc1cc2nn(C34COC(C)(C3)C4)cc2cc1C(=O)Nc1cccn([C@@H]2C[C@H]2F)c1=O` (single isomer, unassigned) [Example 54] are 1.77 and 66.5 µg/mL (≈ 143 µM).
One may read the IC50 as the concentration at which inhibition is half-maximal. For `CC(C)Oc1cc2nn(C34COC(CF)(C3)C4)cc2cc1C(=O)Nc1cccn([C@H]2C[C@@H]2C)c1=O` (single isomer, unassigned) [Example 70], the IC50 at IRAK4 came out at 2.3 nM. The efflux ratio at 120 min, 1 μM on MDR1 stood at 1.59.
For `CC(C)Oc1nc2nn(C34COC(C)(C3)C4)cc2cc1C(=O)Nc1cccn(C2(C)CC2)c1=O` [Example 18, 6-Isopropoxy-2-(1-methyl-2-oxabicyclo[2.1.1]hexan-4-yl)-N-(1-(1-methylcyclopropyl)-2-oxo-1,2-dihydropyridin-3-yl)-2H-pyrazolo[3,4-b]pyridine-5-carboxamide] the same measures were 4.3 nM and 1.31.
Consider `CC(C)Oc1nc2nn(C34COC(CF)(C3)C4)cc2cc1C(=O)Nc1cccn(C2(C)CC2)c1=O` [Example 19, 2-(1-(Fluoromethyl)-2-oxabicyclo[2.1.1]hexan-4-yl)-6-isopropoxy-N-(1-(1-methylcyclopropyl)-2-oxo-1,2-dihydropyridin-3-yl)-2H-pyrazolo[3,4-b]pyridine-5-carboxamide], for which the IC50 on IRAK4 was determined as 6.6 nM. In addition, the efflux ratio at 120 min, 1 μM on MDR1 worked out at 1.91.
In the case of `CC[C@@H](C)Oc1nc2nn(C34COC(CF)(C3)C4)cc2cc1C(=O)Nc1cccn(C2CC2)c1=O` [Example 20, (R)-6-(sec-butoxy)-N-(1-cyclopropyl-2-oxo-1,2-dihydropyridin-3-yl)-2-(1-(fluoromethyl)-2-oxabicyclo[2.1.1]hexan-4-yl)-2H-pyrazolo[3,4-b]pyridine-5-carboxamide], at IRAK4, the 50% inhibitory concentration (IC50) amounted to 4 nM. The efflux ratio at 120 min, 1 μM at MDR1 came to 2.26.
As for `CC[C@H](C)Oc1nc2nn(C34COC(CF)(C3)C4)cc2cc1C(=O)Nc1cccn(C2CC2)c1=O` [Example 21, (S)-6-(sec-butoxy)-N-(1-cyclopropyl-2-oxo-1,2-dihydropyridin-3-yl)-2-(1-(fluoromethyl)-2-oxabicyclo[2.1.1]hexan-4-yl)-2H-pyrazolo[3,4-b]pyridine-5-carboxamide], the IC50 on IRAK4 stood at 1.1 nM. Moreover, on MDR1, the efflux ratio at 120 min, 1 μM was found to be 3.33.
For `CC(C)Oc1nc2nn(C34COC(C)(C3)C4)cc2cc1C(=O)Nc1cccn([C@@H]2CC2(C)C)c1=O` [Example 22, (R)—N-(1-(2,2-dimethylcyclopropyl)-2-oxo-1,2-dihydropyridin-3-yl)-6-isopropoxy-2-(1-methyl-2-oxabicyclo[2.1.1]hexan-4-yl)-2H-pyrazolo[3,4-b]pyridine-5-carboxamide], on IRAK4, the 50% inhibitory concentration (IC50) came to 27 nM. Moreover, the efflux ratio at 120 min, 1 μM at MDR1 was found to be 1.03.
The corresponding values for `CC(C)Oc1nc2nn(C34COC(C)(C3)C4)cc2cc1C(=O)Nc1cccn([C@H]2CC2(C)C)c1=O` [Example 23, (S)—N-(1-(2,2-dimethylcyclopropyl)-2-oxo-1,2-dihydropyridin-3-yl)-6-isopropoxy-2-(1-methyl-2-oxabicyclo[2.1.1]hexan-4-yl)-2H-pyrazolo[3,4-b]pyridine-5-carboxamide] are 1.3 nM and 1.15.
As to `CC(C)Oc1cc2nn(C34COC(CF)(C3)C4)cc2cc1C(=O)Nc1cccn([C@@H]2C[C@@H]2F)c1=O` [Example 53, N-(1-((1R,2S)-2-fluorocyclopropyl)-2-oxo-1,2-dihydropyridin-3-yl)-2-(1-(fluoromethyl)-2-oxabicyclo[2.1.1]hexan-4-yl)-6-isopropoxy-2H-indazole-5-carboxamide], on IRAK4, the 50% inhibitory concentration (IC50) worked out at 9 nM. Moreover, on MDR1, the efflux ratio at 120 min, 1 μM was determined as 6.21.
For `COCC12CC(n3cc4cc(C(=O)Nc5cccn([C@@H]6C[C@H]6F)c5=O)c(OC5CCC5)cc4n3)(CO1)C2` [Example 57, 6-cyclobutoxy-N-(1-((1R,2R)-2-fluorocyclopropyl)-2-oxo-1,2-dihydropyridin-3-yl)-2-(1-(methoxymethyl)-2-oxabicyclo[2.1.1]hexan-4-yl)-2H-indazole-5-carboxamide] the same measures were 1.7 nM and 2.39.
With `COCC12CC(n3cc4cc(C(=O)Nc5cccn([C@@H]6C[C@@H]6C)c5=O)c(OC(C)C)nc4n3)(CO1)C2` [Example 72, 6-isopropoxy-2-(1-(methoxymethyl)-2-oxabicyclo[2.1.1]hexan-4-yl)-N-(1-((1R,2S)-2-methylcyclopropyl)-2-oxo-1,2-dihydropyridin-3-yl)-2H-pyrazolo[3,4-b]pyridine-5-carboxamide], at IRAK4, the IC50 was determined as 27.4 nM. Besides, the efflux ratio at 120 min, 1 μM at MDR1 stood at 2.69.
For `COCC12CC(n3cc4cc(C(=O)Nc5cccn([C@@H]6C[C@@H]6C)c5=O)c(OC(C)C)cc4n3)(CO1)C2` [Example 73, 6-isopropoxy-2-(1-(methoxymethyl)-2-oxabicyclo[2.1.1]hexan-4-yl)-N-(1-((1R,2S)-2-methylcyclopropyl)-2-oxo-1,2-dihydropyridin-3-yl)-2H-indazole-5-carboxamide] the same measures were 43.2 nM and 1.51.
Regarding `CC(C)Oc1cc2nn(C34COC(C3)C4)cc2cc1C(=O)Nc1cccn([C@@H]2C[C@@H]2C)c1=O` [Example 74, 2-(2-oxabicyclo[2.1.1]hexan-4-yl)-6-isopropoxy-N-(1-((1R,2S)-2-methylcyclopropyl)-2-oxo-1,2-dihydropyridin-3-yl)-2H-indazole-5-carboxamide], at IRAK4, the IC50 came to 26.5 nM. Further, the efflux ratio at 120 min, 1 μM on MDR1 stood at 2.07.
For `CC(C)Oc1nc2nn(C34COC(C3)C4)cc2cc1C(=O)Nc1cccn([C@@H]2C[C@@H]2C)c1=O` [Example 75, 2-(2-oxabicyclo[2.1.1]hexan-4-yl)-6-isopropoxy-N-(1-((1R,2S)-2-methylcyclopropyl)-2-oxo-1,2-dihydropyridin-3-yl)-2H-pyrazolo[3,4-b]pyridine-5-carboxamide] the same measures were 36.9 nM and 3.63.
With `CC(C)Oc1nc2nn(C34COC(C)(C3)C4)cc2cc1C(=O)Nc1cccn([C@@H]2C[C@@H]2F)c1=O` [Example 83, N-(1-((1R,2S)-2-fluorocyclopropyl)-2-oxo-1,2-dihydropyridin-3-yl)-6-isopropoxy-2-(1-methyl-2-oxabicyclo[2.1.1]hexan-4-yl)-2H-pyrazolo[3,4-b]pyridine-5-carboxamide], the efflux ratio at 120 min, 1 μM at MDR1 is 4.48. In data set [1], the solubility at 24 h was 16.7 µg/mL (≈ 35.7 µM).
In data set [1], `CC(C)Oc1cc2nn(C34COC(C)(C3)C4)cc2cc1C(=O)Nc1cccn([C@H]2C[C@H]2C)c1=O` [Example 96, 6-isopropoxy-2-(1-methyl-2-oxabicyclo[2.1.1]hexan-4-yl)-N-(1-((1S,2R)-2-methylcyclopropyl)-2-oxo-1,2-dihydropyridin-3-yl)-2H-indazole-5-carboxamide] gave a solubility at 24 h of 13.6 µg/mL (≈ 29.4 µM).
